The source made the active and inactive calls. No cut-off for these calls is given here.

Data set [1] concerns the target T1, Acetylcholinesterase (Homo sapiens, UniProt P22303).
Description: (§1) Inhibition of recombinant human AChE expressed in HEK293 cells using acetylthiocholine iodide as substrate preincubated for 15 mins followed by substrate addition by Ellman's method
For data set [2], the target named is T2, Beta-secretase 1 (Homo sapiens, UniProt P56817). Put plainly: Inhibition human BACE1 expressed in baculovirus expression system using Panvera peptide as substrate measured after 60 mins by fluorescence assay.
Data set [3] addresses T2, Beta-secretase 1. Put plainly: Inhibition human BACE1 expressed in baculovirus expression system at 5 uM using Panvera peptide as substrate measured after 60 mins by fluorescence assay relative to control. Conditions: 1 h; for inhibition (INH): 5 µM.
Data set [4] deals with T3, Cholinesterase (Homo sapiens, UniProt P06276).
T3 sequence (P06276 whole entry): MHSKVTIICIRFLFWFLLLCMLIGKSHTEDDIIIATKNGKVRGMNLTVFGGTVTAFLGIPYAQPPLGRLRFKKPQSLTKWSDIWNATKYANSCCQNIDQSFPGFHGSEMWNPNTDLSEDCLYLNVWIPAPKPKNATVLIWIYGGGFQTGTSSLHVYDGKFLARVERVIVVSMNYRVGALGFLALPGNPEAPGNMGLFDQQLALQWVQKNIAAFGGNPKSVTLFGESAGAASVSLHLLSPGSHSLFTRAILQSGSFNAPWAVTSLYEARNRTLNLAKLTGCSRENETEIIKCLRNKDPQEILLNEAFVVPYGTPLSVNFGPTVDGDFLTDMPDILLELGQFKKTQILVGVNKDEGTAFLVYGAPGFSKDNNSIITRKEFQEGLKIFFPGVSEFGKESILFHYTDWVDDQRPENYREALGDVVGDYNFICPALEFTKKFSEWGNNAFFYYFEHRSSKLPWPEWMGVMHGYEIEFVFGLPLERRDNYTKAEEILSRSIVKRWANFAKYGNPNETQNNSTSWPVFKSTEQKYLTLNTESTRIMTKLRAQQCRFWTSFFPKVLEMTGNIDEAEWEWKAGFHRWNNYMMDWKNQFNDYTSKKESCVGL
Description: (§2) Inhibition of recombinant human BChE using butyrylthiocholine iodide as substrate preincubated for 15 mins followed by substrate addition by Ellman's method
A further data set is described as follows: in vitro. Conditions: PAMPA.
Data set [5] concerns the target T1, Acetylcholinesterase. The experiment in a line: Potency index, ratio of tacrine IC50 to test compound IC50 for recombinant human AChE expressed in HEK293 cells. It counts as cell-based.
Data set [6] addresses T3, Cholinesterase. Put plainly: Potency index, ratio of tacrine IC50 to test compound IC50 for recombinant human BChE.
Data set [7] is described as follows: Drug level in rat liver microsomes treated with N-{8-[(6-Chloro-1,2,3,4-tetrahydroacridin-9-yl)amino]octyl}-2-(6-hydroxy-7-methoxy-2-methylchroman-2-yl)acetamide at 5 uM measured up to 60 mins by UPLC-MS/MS analysis. It is filed as ADME, Microsome. The conditions noted are these: 1 h. Background: Microsomes from liver hold many membrane-bound enzymes, among them those of drug oxidation.

A short description of data set [8]: Drug level in human liver microsomes treated with N-{8-[(6-Chloro-1,2,3,4-tetrahydroacridin-9-yl)amino]octyl}-2-(6-hydroxy-7-methoxy-2-methylchroman-2-yl)acetamide at 5 uM measured up to 60 mins by UPLC-MS/MS analysis. It is filed as ADME, Microsome. The conditions noted are these: 1 h.
Data set [9] in a line: Drug level in mouse liver microsomes treated with N-{8-[(6-Chloro-1,2,3,4-tetrahydroacridin-9-yl)amino]octyl}-2-(6-hydroxy-7-methoxy-2-methylchroman-2-yl)acetamide at 5 uM measured up to 60 mins by UPLC-MS/MS analysis. The conditions noted are these: 1 h. It counts as ADME, Microsome.
For data set [10], the target named is T1, Acetylcholinesterase. The experiment in a line: Mixed inhibition of recombinant human AChE expressed in HEK293 cells assessed as dissociation constant for enzyme-inhibitor complex using varying levels of acetylthiocholine iodide as substrate preincubated for 15 mins followed by substrate addition by Line-weaver Burk plot analysis.
Data set [11] addresses Acetylcholinesterase (Electrophorus electricus, UniProt O42275). The experiment in a line: Displacement of propidium iodide from PAS region of electric eel AChE by fluorescence assay.
Data set [12] deals with T1, Acetylcholinesterase. The experiment in a line: Mixed inhibition of recombinant human AChE expressed in HEK293 cells assessed as dissociation constant for enzyme-substrate-inhibitor complex using varying levels of acetylthiocholine iodide as substrate preincubated for 15 mins followed by substrate addition by Line-weaver Burk plot analysis.
Data set [13] addresses T3, Cholinesterase. This is another data set of the same source.
Description: as §2
Data set [14] concerns the target T1, Acetylcholinesterase. Conditions: hek293.
Description: as §1
The target in data set [15] is T1, Acetylcholinesterase. The experiment in a line: Inhibition of recombinant human AChE expressed in HEK293 cells at 100 uM using acetylthiocholine iodide as substrate preincubated for 15 mins followed by substrate addition by Ellman's method. For orientation: DTNB colorimetry detects thiols as they appear.
Data set [16] concerns the target T3, Cholinesterase. Put plainly: Inhibition of recombinant human BChE at 100 uM using butyrylthiocholine iodide as substrate preincubated for 15 mins followed by substrate addition by Ellman's method.

T1 sequence (P22303 whole entry): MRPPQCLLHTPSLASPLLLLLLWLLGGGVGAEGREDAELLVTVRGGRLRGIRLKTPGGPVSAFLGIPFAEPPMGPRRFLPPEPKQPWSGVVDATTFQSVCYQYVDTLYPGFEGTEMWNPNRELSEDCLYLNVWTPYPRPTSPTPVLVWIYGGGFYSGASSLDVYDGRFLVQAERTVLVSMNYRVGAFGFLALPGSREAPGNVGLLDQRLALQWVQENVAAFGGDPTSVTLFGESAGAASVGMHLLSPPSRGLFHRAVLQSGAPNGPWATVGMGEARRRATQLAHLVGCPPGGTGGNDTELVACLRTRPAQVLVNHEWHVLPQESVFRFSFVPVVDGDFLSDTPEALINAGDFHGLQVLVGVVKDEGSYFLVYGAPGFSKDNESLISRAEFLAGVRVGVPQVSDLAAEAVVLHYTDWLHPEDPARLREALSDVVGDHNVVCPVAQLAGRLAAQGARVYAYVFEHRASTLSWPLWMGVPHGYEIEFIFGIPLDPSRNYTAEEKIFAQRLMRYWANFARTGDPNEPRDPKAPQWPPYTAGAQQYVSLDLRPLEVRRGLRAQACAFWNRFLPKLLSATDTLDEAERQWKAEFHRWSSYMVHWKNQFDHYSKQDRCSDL
T2 sequence (P56817 whole entry): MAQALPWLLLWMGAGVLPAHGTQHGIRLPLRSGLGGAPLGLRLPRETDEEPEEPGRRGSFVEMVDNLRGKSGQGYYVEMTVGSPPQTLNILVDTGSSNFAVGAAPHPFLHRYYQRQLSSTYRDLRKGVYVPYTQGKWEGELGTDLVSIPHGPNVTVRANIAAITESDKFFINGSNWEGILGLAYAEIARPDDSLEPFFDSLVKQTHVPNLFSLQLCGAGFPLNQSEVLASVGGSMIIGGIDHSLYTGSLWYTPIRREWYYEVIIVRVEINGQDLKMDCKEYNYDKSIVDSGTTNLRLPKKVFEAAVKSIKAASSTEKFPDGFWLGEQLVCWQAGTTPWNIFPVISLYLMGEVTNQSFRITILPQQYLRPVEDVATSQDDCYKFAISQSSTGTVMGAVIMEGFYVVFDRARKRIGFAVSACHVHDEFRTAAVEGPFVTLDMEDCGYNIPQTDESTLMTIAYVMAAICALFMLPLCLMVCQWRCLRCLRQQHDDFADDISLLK
Acetylcholinesterase (Electrophorus electricus, UniProt O42275), sequence (O42275 whole entry): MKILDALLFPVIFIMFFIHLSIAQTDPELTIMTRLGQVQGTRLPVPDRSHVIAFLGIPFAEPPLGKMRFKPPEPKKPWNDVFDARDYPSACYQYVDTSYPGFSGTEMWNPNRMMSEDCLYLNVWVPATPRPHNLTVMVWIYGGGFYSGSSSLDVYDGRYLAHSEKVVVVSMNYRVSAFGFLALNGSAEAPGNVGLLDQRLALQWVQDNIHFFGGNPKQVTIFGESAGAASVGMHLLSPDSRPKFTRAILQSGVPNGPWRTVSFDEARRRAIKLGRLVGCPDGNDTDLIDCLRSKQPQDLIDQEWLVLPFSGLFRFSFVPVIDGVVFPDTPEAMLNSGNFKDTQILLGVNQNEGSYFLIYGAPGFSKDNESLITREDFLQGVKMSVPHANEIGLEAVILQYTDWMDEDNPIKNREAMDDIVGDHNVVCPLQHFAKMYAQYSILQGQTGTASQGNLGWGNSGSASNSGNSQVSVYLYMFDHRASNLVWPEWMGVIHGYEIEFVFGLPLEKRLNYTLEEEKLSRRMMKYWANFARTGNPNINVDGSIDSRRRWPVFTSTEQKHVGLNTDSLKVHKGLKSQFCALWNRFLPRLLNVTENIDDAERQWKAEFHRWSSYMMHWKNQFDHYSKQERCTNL
Description for in vitro: Permeability of compound in PBS/EtOH buffer (7:3) PAMPA-BBB assay

As to `COc1cc2c(cc1O)CCC(C)(CC(=O)NCCOCCOCCNc1c3c(nc4cc(Cl)ccc14)CCCC3)O2` (configuration not stated), the IC50 on Acetylcholinesterase [1] is 47.9 nM; against Beta-secretase 1 [2] it was “Not Active”; on Cholinesterase [4], 1840 nM. For the same compound, the “inhibition (INH)” value against Beta-secretase 1 [3] is listed as “Not Active”. In “in vitro”, this compound displayed a Papp of 7 ×10⁻⁶ cm/s.
Take `COc1cc2c(cc1O)CCC(C)(CC(=O)NCCCCCCCCNc1c3c(nc4ccccc14)CCCC3)O2` (configuration not stated): the IC50 against Acetylcholinesterase [1] was 69.8 nM; against Beta-secretase 1 [2], “Not Active”; at Cholinesterase [4], 5.33 nM. Moreover, the Ratio IC50 on Acetylcholinesterase [5] was below 5; on Cholinesterase [6], 7. Moreover, the “inhibition (INH)” value at Beta-secretase 1 [3] is “Not Active”. The compound also registered a Papp in “in vitro” of 7.3 ×10⁻⁶ cm/s.
With `COc1cc2c(cc1O)CCC(C)(CCNCCOCCOCCNc1c3c(nc4cc(Cl)ccc14)CCCC3)O2` (configuration not stated), the IC50 at Acetylcholinesterase [1] was determined as 8.35 nM; on Cholinesterase [4], 180 nM. The inhibition at 5 µM at Beta-secretase 1 [3] stood at 19.9%. The compound also registered a Papp in “in vitro” of 9.7 ×10⁻⁶ cm/s.
For the compound `COc1cc2c(cc1O)CCC(C)(CC(=O)NCCCCCCCNc1c3c(nc4ccccc14)CCCC3)O2` (configuration not stated), the IC50 on Acetylcholinesterase [1] was 111 nM; against Beta-secretase 1 [2] it was “Not Active”; at Cholinesterase [4], 4.28 nM. Also, the Ratio IC50 at Acetylcholinesterase [5] is below 5; on Cholinesterase [6] it was 7. For the same compound, the “inhibition (INH)” value against Beta-secretase 1 [3] was “Not Active”. The same compound showed a Papp in “in vitro” of 6.6 ×10⁻⁶ cm/s.
`COC1=CC(=O)C2(CCC(C)(CC(=O)NCCCCCCCCNc3c4c(nc5cc(Cl)ccc35)CCCC4)O2)CC1=O` (configuration not stated): the Drug metabolism result in data set [7], in [8] and in data set [9] was “Metabolite_Detected” each time.
On to `COc1cc(O)c(CCC(C)(O)CC(=O)NCCCCCCCCNc2c3c(nc4cc(Cl)ccc24)CCCC3)cc1O` (configuration not stated), for which the Drug metabolism entry in data set [7], in data set [8] and in data set [9] was “Metabolite_Detected” in each case.
With `COc1cc2c(cc1O)CCC(C)(CCNCCCCCCCCNc1c3c(nc4cc(Cl)ccc14)CCCC3)O2` (configuration not stated), the IC50 on Acetylcholinesterase [1] is 0.12 nM; against Cholinesterase [4], 13.4 nM. For the same compound, the Ki turned out to be 0.132 nM on Acetylcholinesterase [10] and 0.258 nM on Acetylcholinesterase [12]. On Acetylcholinesterase [11], this compound gave a Kd of 2030 nM. Moreover, on Beta-secretase 1 [3], 5 µM produced 24.8% inhibition. The Ratio IC50 on Cholinesterase [6] is 2. The apparent permeability coefficient (Papp) in “in vitro” worked out at 12.5 ×10⁻⁶ cm/s.
Take `COc1cc2c(cc1O)CCC(C)(CC(=O)O)O2` (configuration not stated): the IC50 result on Cholinesterase [13] and against Acetylcholinesterase [14] was “Not Active” in each case. The compound further yielded a Papp in the data set “in vitro” of 0.4 ×10⁻⁶ cm/s.
As to `COc1cc2c(cc1O)CCC(C)(CCC(=O)NCCCCCCCNc1c3c(nc4cc(Cl)ccc14)CCCC3)O2` (configuration not stated), the IC50 against Acetylcholinesterase [1] was determined as 7.94 nM; at Cholinesterase [4], 187 nM. This compound yielded an inhibition at 5 µM on Beta-secretase 1 [3] of 14%. The compound further displayed a Papp in the data set “in vitro” of 8.3 ×10⁻⁶ cm/s.
Regarding `COc1cc2c(cc1O)CCC(C)(CCC(=O)NCCCCCCNc1c3c(nc4cc(Cl)ccc14)CCCC3)O2` (configuration not stated), the 50% inhibitory concentration (IC50) was 3.8 nM at Acetylcholinesterase [1], “Not Active” at Beta-secretase 1 [2] and 102 nM at Cholinesterase [4]. Further, the “inhibition (INH)” value against Beta-secretase 1 [3] is “Not Active”. For the same compound, the Papp in the data set “in vitro” was 7.8 ×10⁻⁶ cm/s.
For the compound `COc1cc2c(cc1O)CCC(C)(CCC(=O)NCCCCCCCCNc1c3c(nc4cc(Cl)ccc14)CCCC3)O2` (configuration not stated), the results for the half-inhibitory concentration (IC50) against Acetylcholinesterase [1], at Beta-secretase 1 [2] and against Cholinesterase [4] were 6.23 nM, “Not Active” and 148 nM, respectively. Further, the “inhibition (INH)” value against Beta-secretase 1 [3] is listed as “Not Active”. This compound yielded a Papp in “in vitro” of 8.7 ×10⁻⁶ cm/s.
Take `COc1cc2c(cc1OCc1ccccc1)CCC(C)(CC(=O)NCCCCCCNc1c3c(nc4cc(Cl)ccc14)CCCC3)O2` (configuration not stated): the IC50 against Acetylcholinesterase [1] is 11 nM; on Beta-secretase 1 [2] (read-out: IC50), 18000 nM; against Cholinesterase [4] it was 201 nM. The compound also displayed a Papp in the data set “in vitro” of 10.7 ×10⁻⁶ cm/s.
In the same order, the values of `COc1cc2c(cc1OCc1ccccc1)CCC(C)(CC(=O)NCCCCCCCNc1c3c(nc4cc(Cl)ccc14)CCCC3)O2` (configuration not stated) are 6.99 nM, 12500 nM, 51 nM and 11.5 ×10⁻⁶ cm/s.
With `COc1cc2c(cc1O)CCC(C)(CC(=O)NCCCCCCNc1c3c(nc4ccccc14)CCCC3)O2` (configuration not stated), the IC50 was 275 nM on Acetylcholinesterase [1], “Not Active” at Beta-secretase 1 [2] and 4.99 nM against Cholinesterase [4]. The values for the Ratio IC50 on Acetylcholinesterase [5] and at Cholinesterase [6] were below 5 and 7, respectively. At Beta-secretase 1 [3], the “inhibition (INH)” value is recorded as “Not Active”. In the data set “in vitro”, this compound registered a Papp of 4.3 ×10⁻⁶ cm/s.
As to `COc1cc2c(cc1O)CCC(C)(CC(=O)NCCCCCCCNc1c3c(nc4cc(Cl)ccc14)CCCC3)O2` (configuration not stated), the IC50 against Acetylcholinesterase [1] is 5.43 nM; against Beta-secretase 1 [2], “Not Active”; at Cholinesterase [4], 79.1 nM. For the same compound, on Beta-secretase 1 [3], the “inhibition (INH)” value was “Not Active”. In the data set “in vitro”, the Papp worked out at 9.7 ×10⁻⁶ cm/s.
Turning to `COC1=CC(=O)C(CCC(C)(O)CC(=O)NCCCCCCCCNc2c3c(nc4cc(Cl)ccc24)CCCC3)=CC1=O` (configuration not stated), the Drug metabolism result in data set [7], in [8] and in data set [9] was “Metabolite_Detected” in each case.
For the compound `COc1cc2c(cc1OCc1ccccc1)CCC(C)(CC(=O)NCCCCCCCCCNc1c3c(nc4cc(Cl)ccc14)CCCC3)O2` (configuration not stated), the IC50 against Acetylcholinesterase [1] came to 7.89 nM; at Beta-secretase 1 [2] (read-out: IC50) it was 7190 nM; on Cholinesterase [4], 30.6 nM. Besides, in the data set “in vitro”, the Papp stood at 10.4 ×10⁻⁶ cm/s.
Consider `COc1cc2c(cc1O)CCC(C)(CCNCCCCCCCCCNc1c3c(nc4cc(Cl)ccc14)CCCC3)O2` (configuration not stated), for which the IC50 at Acetylcholinesterase [1] turned out to be 0.27 nM; at Cholinesterase [4] it was 18.3 nM. On Beta-secretase 1 [3], this compound displayed an inhibition at 5 µM of 28.1%. Also, on Cholinesterase [6], the Ratio IC50 came out at 2. For the same compound, in the data set “in vitro”, the apparent permeability (Papp) stood at 10.1 ×10⁻⁶ cm/s.
With `COc1cc2c(cc1O)CCC(C)(CCN)O2` (configuration not stated), the IC50 on Acetylcholinesterase [1] was 101000 nM; on Cholinesterase [4], 23200 nM. In addition, the inhibition entry on Acetylcholinesterase [15] and at Cholinesterase [16] was “inactive” throughout. In the data set “in vitro”, this compound returned a Papp of 1 ×10⁻⁶ cm/s.
For the compound `COc1cc2c(cc1O)CCC(C)(CC(=O)NCCCCCCCCCNc1c3c(nc4cc(Cl)ccc14)CCCC3)O2` (configuration not stated), the IC50 was 2.05 nM on Acetylcholinesterase [1], “Not Active” against Beta-secretase 1 [2] and 168 nM on Cholinesterase [4]. The “inhibition (INH)” value against Beta-secretase 1 [3] is listed as “Not Active”. For the same compound, the Papp in the data set “in vitro” worked out at 8.2 ×10⁻⁶ cm/s.
For the compound `Nc1c2c(nc3cc(Cl)ccc13)CCCC2`, the Drug metabolism result in [7], in data set [8] and in data set [9] was “Metabolite_Detected” in each case. Moreover, in “in vitro”, the Papp turned out to be 26.1 ×10⁻⁶ cm/s.
`COc1cc2c(cc1O)CCC(C)(CCNCCCCCCCNc1c3c(nc4cc(Cl)ccc14)CCCC3)O2` (configuration not stated): the values for the IC50 against Acetylcholinesterase [1], against Beta-secretase 1 [2] and on Cholinesterase [4] were 0.44 nM, “Not Active” and 17.4 nM, respectively. Also, the “inhibition (INH)” value at Beta-secretase 1 [3] is “Not Active”. In addition, the Ratio IC50 at Cholinesterase [6] was found to be 2. The same compound registered an apparent permeability coefficient (Papp) in the data set “in vitro” of 10.3 ×10⁻⁶ cm/s.
Take `COc1cc2c(cc1O)CCC(C)(CC(=O)NCCCCCCCCCNc1c3c(nc4ccccc14)CCCC3)O2` (configuration not stated): the results for the IC50 on Acetylcholinesterase [1] and at Cholinesterase [4] were 57.8 nM and 5.36 nM, respectively. Further, the Ratio IC50 on Acetylcholinesterase [5] was below 5; at Cholinesterase [6], 7. This compound showed an inhibition at 5 µM on Beta-secretase 1 [3] of 6.75%. Moreover, the apparent permeability coefficient (Papp) in the data set “in vitro” was found to be 8.9 ×10⁻⁶ cm/s.

The term IC50 denotes the concentration needed to halve the response being measured. What is called Papp is a coefficient for how fast a substance crosses the barrier. High values mean fast passage, low ones slow passage. By inhibition is commonly meant the change of the read-out against control, counted positive when it falls. The term Ki denotes the equilibrium dissociation constant of an inhibitor or competing ligand from its target. As usually defined, the Kd is the concentration at which binding is half-saturated.

These data come from ChEMBL document CHEMBL4725294, “Centrally Active Multitarget Anti-Alzheimer Agents Derived from the Antioxidant Lead CR-6” (J Med Chem, 2020).
